Experimental data as given in patent publication US10563243B2, “Bioavailability of metal ions” (priority 2014, dated 2020).

Key:
[1] = cited from earlier work
[2] = tested on: mixture of Actinomyces viscosus, Lactobacillus casei, Streptococcus oralis, Fusobacterium nucleatum, and Veillnoella parvula; assay: Zinc/copper bioavailability assay: bacterial viability by resazurin fluorescence, oral bacterial mixture
Method: (This bacterial mixture simulates the complex flora of the oral environment.) Subsequently, the cells were washed and mixed with 5 μg/ml resazurin solution. The fluorescence of the samples was read at 560 nm excitation and at 590 nm emission, and compared to standardized mixtures of viable and non-viable bacteria in order to determine the percentage of the total bacterial population that remained viable after treatment. Each salt was tested at two different concentrations of zinc. The total amount of zinc was consistent between the different salts.
The amount of soluble zinc in each solution was also determined by centrifuging the solutions to remove insoluble zinc, and by testing the supernatant using ICP-AA (inductively coupled plasma with atomic absorption).

[3] = tested on: mixture of Escherichia coli (45%), Staphylococcus aureus (45%) and Serratia marcescens (10%); assay: Zinc bioavailability assay: bacterial viability by resazurin fluorescence, skin bacterial mixture; assay type: cell-based; settings: Table 5; 0.4% ZnO, 0.8% Zn Citrate, or mix, in deionized water; Triclosan positive control
Method: The incubation and detection methods used were as described in Example 1. […] Triclosan was used as a positive antimicrobial control for the experiment.

[4] = Table 6, 0.5% elemental copper in deionized water
[5] = Table 7, 0.05% elemental copper in deionized water

With `O=S(=O)([O-])[O-].[Cu+2]` [CuSO4] as the compound, how does the “theoretical solubility in water” value [1] read?
Its value is 20 g/100 ml.

And the “% viable” value [2, 4]?
The value was 5.82%.

And the “% viable” value [2, 5]?
Its value is 13.98%.

With Cu2O as the compound, how does the “theoretical solubility in water” value [1] read?
Its value is “insoluble”.

Which “% viable” value [2, 5] does the source give for `[F][Cu][F]` [CuF2] here?
The value was 17.82%.

Which “% viable” value [3] does the source give for `Oc1cc(Cl)ccc1Oc1ccc(Cl)cc1Cl` [Triclosan, reference compound] here?
The value was 18.83%.

For `[O]=[Cu]` [CuO], which “% viable” value [2, 4] is on record?
The value was 42.73%.

What about the “% viable” value [2, 5] of the same compound?
The value was 78.67%.

For `[O]=[Zn]` [ZnO, zinc oxide], which “% viable” value [3] is on record?
The value was 67.23%.

What about the “% viable” value ([2]; Table 2, zinc salt solution without added citrate) of the same compound?
The value was 23.75%.

What does the source list for `[Cl][Cu][Cl]` [CuCl2]?
theoretical solubility in water [1]: 75.7 g/100 ml; % viable [2, 4]: 1.89%; % viable [2, 5]: 11.99%
